Assay results taken from patent US20260034192A1 (University of Saskatchewan, priority 2022, published 2026).
“And” between values parts separate entries of the source, which are not always exact repeats. Equal entries are not always repeated. Marks after values point to notes of the source that are not given here. Square brackets hold non-standard residues; d marks the D form. Peptide text beside a SMILES is read from it. dPhe(4-Cl) = N[C@H](Cc1ccc(Cl)cc1)C(=O)O; d2Nal = N[C@H](Cc1ccc2ccccc2c1)C(=O)O; dCit = NC(=O)NCCC[C@@H](N)C(=O)O; d3Pal = N[C@H](Cc1cccnc1)C(=O)O

Experiments:
alpacas = assay: Alpaca Cetrorelix known stage study, two injections (Example 2); assay type: in vivo; details: for Wave emergence after the first Cetrorelix injection, average: 2 x 1.5 mg i/m, D5 and D10 groups combined
Text: Methods: The specific objective of this experiment was to identify the pattern of growth for the dominant follicle in alpacas following treatment with a GnRH antagonist during two contrasting stages of the follicular wave. Based on data from natural spontaneous waves in alpacas, the dominant follicle is expected to be in early- to mid-growing phase (6 to 7 mm in diameter) on Day 5 and in mid-static phase (9 to 10 mm) on Day 10, so the treatments were planned to begin on these days.
The experimental design is illustrated FIG. 3. Transrectal ovarian ultrasonography was performed using an Esoate My Lab 5 ultrasound machine and a 7.5 linear array transducer attached to a custom-build rigid PVC pipe handle. The pipe was slightly curved at the transducer end to facilitate manipulation of the transducer. The transducer and the plastic handle were lubricated using methyl cellulose ultrasound gel and inserted slowly into the rectum after manual removal of the faeces. Reproductive track and ovaries were located and 10 to 20 second video clips of left and right ovary were recorded. Sketches of ovaries were drawn daily at the time of imaging to record location, size and number of follicles >2 mm in diameter as well as the size and location of the corpus luteum (if present). Ultrasound examinations were performed daily. The experimental data recording began when a spontaneous emergence of a new follicular wave detected in an animal (defined as Extant follicular wave). The day of wave emergence was designated as Day 0 and was defined retrospectively as the first detection of the dominant follicle at 4 or 5 mm size with concomitant increase in number of 3-4 mm follicles.
The first group of alpacas (Control group) were given no treatment, their ovaries were examined daily and blood samples were obtained daily from Day 4 to 12 to compare hormonal data from analogous days after Cetrorelix treatment. The second group of alpacas (D5 group) were given the first intramuscular injection of 1.5 mg (3 mL of 0.5 mg per mL solution) Cetrorelix acetate on Day 5 and a second injection of 3 mL on Day 6 (i.e., two i/m injections of 1.5 mg Cetrorelix at 24 hour interval for a total dose of 3 mg). The Cetrorelix dose administered was approximately equal to 20 ug/Kg body weight per day (considering average body weight of alpaca=75 kg) and based on the previous studies in llama and cattle (Silva et al, 2011, Ulker et al 2001). Alpacas in the third group (D10 group) were given the first intramuscular injection of 1.5 mg Cetrorelix acetate on Day 10 and a second injection of 1.5 mg on Day 11.
Cetrorelix treatments were given during the extant follicular wave. Changes in the size of the dominant follicle, largest subordinate follicle, and the number of ≥3 mm follicles were recorded daily from spontaneous emergence of extant follicular wave to Day 6 of next (post-treatment) follicular wave emergence. The inter-wave interval was determined based on duration between emergence of successive follicular waves.
Blood samples (5 to 8 mL) were collected in heparinized tubes (BD Vacutainer, BD Franklin Lakes, NJ, USA) via jugular venipuncture. Blood samples were kept on ice packs till centrifugation at 200 rpm (within 1 hr of collection) to obtain plasma samples that were immediately frozen at −20° C. until measurement of plasma LH. Plasma samples were obtained on Day 4 to 7 in Group 2 (that is, 1 day before to 1 day after Cetrorelix treatment) and on Day 9 to 12 in Group 3. For direct comparison, plasma samples were obtained from Day 4 to 12 in control group.

[1] = test system: pubertal Hereford-cross beef heifers; assay: Cetrorelix in luteal versus preovulatory phase, hCG ovulation challenge in heifers (Example 6); assay type: in vivo, cattle; details: high and low progesterone, 3 mg i/m
Procedure: Experimental design: The study was conducted on pubertal Hereford-cross beef heifers (n=24) at the U. Sask. Livestock and Forage Centre of Excellence (LFCE) using a 2×2 factorial design (Table 15). Initial transrectal ultrasonography was performed to confirm post-pubertal or post-partum cyclicity by the presence or absence of a corpus luteum (CL). Animals with a CL were weighed and treated with prostaglandin F2a analog as in Example 4 and monitored by ultrasonography to detect ovulation. Day of ovulation was considered the day of wave emergence (defined as Day 0).
On the day of ovulation, heifers were randomized into 4 groups. Those in the preovulatory groups were given prostaglandin on Days 4 and 4.5 of the wave while those in the luteal groups were allowed to maintain the CL (i.e., no prostaglandin treatment). Treatments was given as outlined in Table 16 and schematic time line FIG. 8. Cetrorelix groups were given 3 mg cetrorelix i/m on Day 5. All animals were treated with hCG (Chorulon, 1500 IU, im) on Day 7 of the wave (i.e., 48 hr after Cetrorelix/saline treatment) to determine the ovulatory potential of the dominant follicle.
Blood samples were taken 24 hr after cetrorelix or no treatment (control groups) for measurement of plasma concentrations of LH and progesterone. Data was analyzed in a similar manner to Example 4.

[2] = 2 x 1.5 mg i/m starting Day 5 (D 5)
[3] = 2 x 1.5 mg i/m starting Day 10 (D 10)
[4] = 2 x 1.5 mg i/m starting Day 10 (D 10), n = 6

CC(=O)N[C@H](Cc1ccc2ccccc2c1)C(=O)N[C@H](Cc1ccc(Cl)cc1)C(=O)N[C@H](Cc1cccnc1)C(=O)N[C@@H](CO)C(=O)N[C@@H](Cc1ccc(O)cc1)C(=O)N[C@H](CCCNC(N)=O)C(=O)N[C@@H](CC(C)C)C(=O)N[C@@H](CCCNC(=N)N)C(=O)N1CCC[C@H]1C(=O)N[C@H](C)C(N)=O [Cetrorelix, N-acetyl-3-(2-naphthyl)-D-alanyl-4-chloro-D-phenylalanyl-3-(3-pyridyl)-D-alanyl-L-seryl-L-tyrosyl-D-citrullyl-L-leucyl-L-arginyl-L-prolyl-D-alaninamide] (Ac-[d2Nal][dPhe(4-Cl)][d3Pal]SY[dCit]LRP[dA]-NH2)
Extant Wave: Total Number of Follicles on Day of Emergence (alpacas; 1.5 mg Cetrorelix acetate i/m twice at 24 hr interval starting Day 5 (D 5)): 10.71 ± 0.97 | Extant Wave: Total Number of Follicles on Day of Emergence (alpacas; 1.5 mg Cetrorelix acetate i/m twice at 24 hr interval starting Day 10 (D 10)): 9.14 ± 1.39 | Day of largest subordinate follicle maximum diameter (alpacas; [2]): 1.86 ± 1.01 days | Degree of Synchrony: Days from treatment to next wave emergence (alpacas; [2]): 7.71 ± 0.36 days and 7.7 ± 0.36 days | Dominant Follicle Diameter on Day 5 (mm) (alpacas; [2]): 6.64 ± 0.43 mm | Dominant Follicle Diameter on Day 10 (mm) (alpacas; [2]): 5.50 ± 0.87^b mm | Dominant Follicle Diameter on Day of Cetrorelix Treatment (mm) (alpacas; [2]): 6.64 ± 0.43^a mm | Dominant Follicle End of Growth (days) (alpacas; [2]): 4.86 ± 0.40^b days | Interwave Interval (alpacas; [2]): 12.7 ± 0.36 days and 12.7 days | Interwave Interval (days) (alpacas; [2]): 12.71 ± 0.36^b days | Largest Subordinate Follicle Diameter on Day 5 (mm) (alpacas; [2]): 3.21 ± 0.21 mm | Largest Subordinate Follicle Diameter on Day 10 (mm) (alpacas; [2]): 2.71 ± 0.81 mm | Largest Subordinate Follicle Diameter on Day of Cetrorelix Treatment (mm) (alpacas; [2]): 3.21 ± 0.21 mm | Largest Subordinate Follicle Maximum Diameter (mm) (alpacas; [2]): 4.57 ± 0.40 mm | Next Wave: Total Number of Follicles on Day of Emergence (alpacas; [2]): 13.14 ± 1.47 | Day of dominant follicle maximum diameter (alpacas; [3]): 10.3±0.68 days and 10.29 ± 0.68^a days | Day of largest subordinate follicle maximum diameter (alpacas; [3]): 6.00 ± 1.36 days | Dominant Follicle Diameter on Day 5 (mm) (alpacas; [3]): 9.71 ± 1.77 mm | Dominant Follicle Diameter on Day 10 (mm) (alpacas; [3]): 10.36 ± 0.85^a mm | Dominant Follicle Diameter on Day of Cetrorelix Treatment (mm) (alpacas; [3]): 10.36 ± 0.85^b mm | Dominant Follicle End of Growth (days) (alpacas; [3]): 8.00 ± 0.38^a days | Dominant Follicle Length of Static Phase (alpacas; [3]): 4.9 ± 0.40 days | Dominant Follicle Length of Static Phase (days) (alpacas; [3]): 4.86 ± 0.40^ab days | Dominant Follicle Maximum Diameter (mm) (alpacas; [3]): 10.9±0.70 mm and 10.93 ± 0.70^a mm | Dominant Follicle Onset of Regression (alpacas; [3]): 12.9 ± 0.34 days | Dominant Follicle Onset of Regression (days) (alpacas; [3]): 12.86 ± 0.34^a days | Largest Subordinate Follicle Diameter on Day 5 (mm) (alpacas; [3]): 4.21 ± 0.76 mm | Largest Subordinate Follicle Diameter on Day 10 (mm) (alpacas; [3]): 4.00 ± 0.97 mm | Largest Subordinate Follicle Diameter on Day of Cetrorelix Treatment (mm) (alpacas; [3]): 4.00 ± 0.97 mm | Largest Subordinate Follicle Maximum Diameter (mm) (alpacas; [3]): 5.79 ± 1.02 mm | Interwave Interval (alpacas; [4]): 17.71 ± 0.52 days and 18.17 days | Interwave Interval (days) (alpacas; [4]): 17.71 ± 0.52^c# days | Next Wave: Total Number of Follicles on Day of Emergence (alpacas; [4]): 12.14 ± 1.08 | Wave emergence after the first Cetrorelix injection, average (alpacas): 7.92 ± 0.24 days | Wave emergence after the first Cetrorelix injection, average (alpacas; listed as Cetrorelix acetate): about 7.92±0.24 days | Interval from first treatment to next wave emergence, range (alpacas; D5 group): 7 to 9 days | Interval from first treatment to next wave emergence, range (alpacas; D10 group): 7 to 9 days | Time for which dominant/pre-ovulatory follicle maintains ovulatory potential after cetrorelix treatment [1]: at least 48 hr
